From PMC7917901 (Marine Drugs, 2021)
Like-named read-outs stand apart in the source and are kept apart here.

What was measured:
[1] = test system: C57BL/6J mice; details: mouse, in vivo
[2] = to oxalate and dichloro 1,2-diaminocyclohexyl-platinum complex; ref [48]; cited from earlier work
Text: Although both oxaliplatin and cisplatin are platinum based antineoplastic drugs, and both act by DNA alkylation, they differ markedly in their ability to elicit pain syndromes. […] The most distinctive feature of oxaliplatin is ...

[3] = test system: mechanical and cold allodynia; details: cited from earlier work
[4] = test system: C57BL/6J mice; assay: Induction of mechanical allodynia and general observations after intraplantar oxaliplatin or cisplatin; details: 40 µg/paw i.pl.
[5] = test system: nerve injury-induced hyperalgesia in mice; details: mouse, in vivo, sc; cited from earlier work
[6] = human, in vivo; cited from earlier work

In the case of `O=C1[O][Pt]2([NH][C@@H]3CCCC[C@H]3[NH]2)[O]C1=O` [oxaliplatin], the “Adverse signs after platinum drug injection” value [1] is listed as “maintained healthy appearance and body weight with no sign of licking, shaking, or lameness of the injected paw”, the “Mechanical PWT after oxaliplatin” value [1] is listed as 1.4 ± 0.1 g and the “Non-enzymatic transformation” value [2] is listed as “fast, non-enzymatic transformation”. The “Type of allodynia caused” value ([3]; in vivo) was “causes both mechanical and cold allodynia”.

For `N.N.[Cl][Pt][Cl]` [cisplatin], the “Type of allodynia caused” value ([3]; ref [45],[46],[47]) is listed as “only evokes mechanical allodynia”, the “Adverse signs after platinum drug injection” value [4] is listed as “No sign of adverse effects including, licking, shaking, or lameness of the injected paws was observed” and the “Mechanical PWT after cisplatin” value ([4]; right hind paw, 24 h after injection, mean ± SEM, n = 18, naïve 3.3 ± 0.1 g, p < 0.0001) is listed as 1.9 ± 0.1 g.

In the case of `COC(=O)C1=C(C)NC(C)=C(C(=O)OC)C1c1ccccc1[N+](=O)[O-]` [nifedipine], the “Effect on nerve injury-induced hyperalgesia” value [5] is given as “ineffective”.

For `CSCC[C@@H]1NC(=O)[C@H](CC(C)C)NC(=O)[C@H](CCCNC(=N)N)NC(=O)[C@H](CO)NC(=O)[C@@H]2CSSC[C@@H]3NC(=O)[C@H](CO)NC(=O)CNC(=O)[C@H]([C@@H](C)O)NC(=O)[C@H](CSSC[C@H](N)C(=O)N[C@@H](CCCCN)C(=O)NCC(=O)N[C@@H](CCCCN)C(=O)NCC(=O)N[C@@H](C)C(=O)N[C@@H](CCCCN)C(=O)N2)NC(=O)[C@H](CSSC[C@@H](C(N)=O)NC(=O)[C@H](CCCCN)NC(=O)CNC(=O)[C@H](CO)NC(=O)[C@H](CCCNC(=N)N)NC3=O)NC(=O)[C@H](CC(=O)O)NC(=O)[C@H](Cc2ccc(O)cc2)NC1=O` [MVIIA], the “Dose limiting side effects” value [6] is given as “dose limiting side effects including dizziness, nystagmus, sedation, blurred vision, and orthostatic hypotension”.
